Reference: ChEMBL document CHEMBL1148683, “Synthesis and monoamine transporter affinity of front bridged tricyclic 3beta-(4'-halo or 4'-methyl)phenyltropanes bearing methylene or carbomethoxymethylene on the bridge to the 2beta-position” (Bioorg Med Chem Lett, 2006)

How the values were obtained:
[1] = target: Sodium-dependent dopamine transporter (Homo sapiens, UniProt Q01959); assay: Displacement of [125I]RTI-55 from human DAT transfected in HEK293 cells; type: cell-based
[2] = target: T1, Sodium-dependent noradrenaline transporter (Homo sapiens, UniProt P23975); assay: Displacement of [3H]nisoxetine from human NET transfected in HEK293 cells; type: cell-based
T1 sequence (P23975 whole entry): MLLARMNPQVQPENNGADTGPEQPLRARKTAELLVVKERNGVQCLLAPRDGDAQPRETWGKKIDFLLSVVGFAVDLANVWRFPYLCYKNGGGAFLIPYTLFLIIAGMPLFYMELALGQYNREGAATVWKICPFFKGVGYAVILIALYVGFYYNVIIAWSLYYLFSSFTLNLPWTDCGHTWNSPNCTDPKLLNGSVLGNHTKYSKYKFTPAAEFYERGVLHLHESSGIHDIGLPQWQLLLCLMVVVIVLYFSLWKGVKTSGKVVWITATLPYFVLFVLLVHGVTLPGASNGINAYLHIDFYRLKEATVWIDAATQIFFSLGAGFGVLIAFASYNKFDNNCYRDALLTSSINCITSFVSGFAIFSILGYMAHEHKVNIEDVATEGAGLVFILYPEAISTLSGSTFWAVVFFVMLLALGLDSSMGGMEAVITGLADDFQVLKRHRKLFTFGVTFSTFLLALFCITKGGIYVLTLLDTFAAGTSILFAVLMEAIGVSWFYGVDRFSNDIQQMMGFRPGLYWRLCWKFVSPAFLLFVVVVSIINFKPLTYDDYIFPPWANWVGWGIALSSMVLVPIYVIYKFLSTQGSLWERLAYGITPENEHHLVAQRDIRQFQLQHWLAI

[3] = target: Sodium-dependent serotonin transporter (Homo sapiens, UniProt P31645); assay: Displacement of [3H]citalopram from human SERT transfected in HEK293 cells; type: cell-based
Sodium-dependent serotonin transporter, sequence (P31645 whole entry): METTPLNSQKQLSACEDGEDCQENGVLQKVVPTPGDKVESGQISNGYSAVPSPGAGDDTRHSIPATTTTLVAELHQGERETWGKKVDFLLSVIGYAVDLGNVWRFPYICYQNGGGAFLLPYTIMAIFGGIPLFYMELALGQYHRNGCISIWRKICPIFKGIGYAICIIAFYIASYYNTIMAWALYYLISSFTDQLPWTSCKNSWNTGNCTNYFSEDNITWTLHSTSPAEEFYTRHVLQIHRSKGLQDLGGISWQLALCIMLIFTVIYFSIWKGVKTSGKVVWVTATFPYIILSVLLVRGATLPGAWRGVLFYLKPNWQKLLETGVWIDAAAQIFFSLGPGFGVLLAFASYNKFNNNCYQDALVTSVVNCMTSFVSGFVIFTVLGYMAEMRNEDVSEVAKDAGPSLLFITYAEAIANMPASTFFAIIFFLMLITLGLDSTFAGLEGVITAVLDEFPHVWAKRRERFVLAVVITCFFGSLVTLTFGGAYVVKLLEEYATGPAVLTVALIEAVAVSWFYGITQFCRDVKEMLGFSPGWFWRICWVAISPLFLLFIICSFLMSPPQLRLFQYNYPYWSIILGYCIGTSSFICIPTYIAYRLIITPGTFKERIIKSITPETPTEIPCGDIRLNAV

[4] = target: Serotonin and norepinephrine transporters (SERT/NET) (Homo sapiens) (UniProt P31645+P23975); assay: Selectivity for human SERT over NET; type: protein assay
Serotonin and norepinephrine transporters (SERT/NET) (Homo sapiens), sequence (P23975 whole entry, looked up): as the sequence (P23975 whole entry) above
Serotonin and norepinephrine transporters (SERT/NET) (Homo sapiens), sequence (P31645 whole entry, looked up): as the sequence (P31645 whole entry) above

[5] = target: Monoamine transporters; serotonin & dopamine (Homo sapiens) (UniProt P31645+Q01959); assay: Selectivity for human SERT over DAT; type: protein assay
Monoamine transporters; serotonin & dopamine (Homo sapiens), sequence (P31645 whole entry, looked up): as the sequence (P31645 whole entry) above
Monoamine transporters; serotonin & dopamine (Homo sapiens), sequence (Q01959 whole entry, looked up): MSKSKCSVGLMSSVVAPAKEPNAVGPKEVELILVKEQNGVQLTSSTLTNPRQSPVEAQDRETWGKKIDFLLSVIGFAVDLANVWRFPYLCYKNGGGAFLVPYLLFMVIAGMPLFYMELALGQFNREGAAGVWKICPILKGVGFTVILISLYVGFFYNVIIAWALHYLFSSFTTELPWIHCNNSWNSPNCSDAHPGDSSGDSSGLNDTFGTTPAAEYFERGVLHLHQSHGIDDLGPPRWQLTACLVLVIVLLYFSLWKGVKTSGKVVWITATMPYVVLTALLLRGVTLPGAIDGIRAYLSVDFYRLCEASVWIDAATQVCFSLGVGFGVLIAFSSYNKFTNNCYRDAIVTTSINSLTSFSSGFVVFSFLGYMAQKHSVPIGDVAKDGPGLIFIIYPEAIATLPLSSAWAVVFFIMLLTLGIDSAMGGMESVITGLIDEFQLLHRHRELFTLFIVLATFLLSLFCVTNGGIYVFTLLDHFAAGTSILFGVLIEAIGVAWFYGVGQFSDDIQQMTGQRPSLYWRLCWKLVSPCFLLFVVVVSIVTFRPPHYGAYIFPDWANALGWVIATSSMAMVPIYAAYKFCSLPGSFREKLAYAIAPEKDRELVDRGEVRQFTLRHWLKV

[6] = system: Rhesus monkey; assay: Selective uptake in pons over occipital cortex of iv dosed rhesus monkey after 105 mins by microPET imaging assay; type: ADME, organism-based, Macaca mulatta; conditions: in vivo, 1.75 h
[7] = system: Rhesus monkey; assay: Selective uptake in midbrain over occipital cortex of iv dosed rhesus monkey after 105 mins by microPET imaging assay; type: ADME, organism-based, Macaca mulatta, Brain; conditions: in vivo, 1.75 h
[8] = system: Rhesus monkey; assay: Selective uptake in thalamus over occipital cortex of iv dosed rhesus monkey after 105 mins by microPET imaging assay; type: ADME, organism-based, Macaca mulatta; conditions: in vivo, 1.75 h
[9] = system: Rhesus monkey; assay: Selective uptake in putamen over occipital cortex of iv dosed rhesus monkey after 105 mins by microPET imaging assay; type: ADME, organism-based, Macaca mulatta; conditions: in vivo, 1.75 h
[10] = target: T1, Sodium-dependent noradrenaline transporter; assay: Inhibition of (-)-[3H]NE uptake at NET
[11] = system: Rhesus monkey; assay: Selective uptake in cerebellum over occipital cortex of iv dosed rhesus monkey after 25 mins by microPET imaging assay; type: ADME, organism-based, Macaca mulatta; conditions: in vivo
[12] = system: Rhesus monkey; assay: Selective uptake in medulla over occipital cortex of iv dosed rhesus monkey after 105 mins by microPET imaging assay; type: ADME, organism-based, Macaca mulatta; conditions: in vivo, 1.75 h
[13] = system: Rhesus monkey; assay: Selective uptake in caudate over occipital cortex of iv dosed rhesus monkey after 105 mins by microPET imaging assay; type: ADME, organism-based, Macaca mulatta; conditions: in vivo, 1.75 h

Sodium-dependent dopamine transporter, sequence (Q01959 whole entry): as the sequence (Q01959 whole entry, looked up) above

SMILES	Ki [1] [nM]	Ki [2] [nM]	Ki [3] [nM]	other results
C=C1CN2C3CCC2C1C(c1ccc(Cl)cc1)C3 (stereo unspecified)	12.3	4.84	0.82	
COC(=O)/C=C1/CN2C3CCC2C1C(c1ccc(Br)cc1)C3 (stereo unspecified)	2.94	12.5	5.63	
COC(=O)/C=C1/CN2C3CCC2C1C(c1ccc(C)cc1)C3 (stereo unspecified)	13.2	25.5	98.3	
C=C1CN2C3CCC2C1C(c1ccc(I)cc1)C3 (stereo unspecified)	8.48	5.87	0.09	Selectivity ratio [4]: 65; Selectivity ratio [5]: 94
COC(=O)/C=C1/CN2C3CCC2C1C(c1ccc(Cl)cc1)C3 (stereo unspecified)	4.54	13	18.7	
C=C1CN2C3CCC2C1C(c1ccc(Br)cc1)C3 (stereo unspecified)	41.9	2.94	0.28	
C=C1CN2C3CCC2C1C(c1ccc(C)cc1)C3 (stereo unspecified)	41	17.3	7.77	Ratio [6]: 1.52; Ratio [7]: 1.53; Ratio [8]: 1.48; Ratio [9]: 1.83; IC50 [10]: 2.2 nM; Ratio [11]: 1.39; Ratio [12]: 1.36; Ratio [13]: 1.47
